Columns and labels:
wild-type SH-EP1 cells = assay: control: acetylcholine on wild-type SH-EP1 cells (no nAChR) measured by CAR; type: binding; conditions: wild-type SH-EP1 cells without nAChR, 50, 100, 200 nM
Description: (§1) Most drugs are small molecules, and over 50% drug targets are membrane proteins.
(§2) CAR angle was set at 61.6 degrees with a sensitivity of 112 RIU^−1. The binding kinetic curves (black) were obtained by averaging the CAR response of seven cells and globally fitted to the first-order kinetics (red) (see Supplementary Figure 12b for the response of individual cells).
(§3) All the cell-related experiments including CAR, SPR, transmitted and fluorescence measurements (Figs. 4–6) were performed on an objective-based SPR microscope setup, which consisted of an inverted microscope (Olympus IX-81) and a ×60 (NA 1.49) oil-immersion objective. The light source for CAR and SPR imaging was a superluminescent light-emitting diode (SLED) (SLD-260-HP-TOW-PD-670, Superlum, Ireland) with 670 nm wavelength and 1 mW power set by a SLED current driver (PILOT4-AC, Superlum). The SLED was mounted on a translation stage (PT3, Thorlabs) with a motorized actuator (Z825B, Thorlabs) for adjusting incident angle. […] The light source for transmitted and fluorescence imaging were the stocking halogen and mercury lamp of the microscope, respectively. The excitation and emission wavelength used for imaging Alexa Fluor 488 labelled WGA were 488 nm and 518 nm, respectively, and the power density on the sample was ~0.1 mW/cm^2. A CMOS camera (ORCA-Flash 4.0, Hamamatsu) was used to record the images. […]

[1] = target: T1, nicotinic acetylcholine receptor (nAChR), human α4β2 receptor on SH-EP1_α4β2 cells (Homo sapiens, UniProt P17787+P43681); assay: acetylcholine binding to nAChR on fixed SH-EP1_α4β2 cells measured by CAR imaging; conditions: 61.6 degrees, average of seven cells, global fit
T1 construct: expressed in transfected cells; host or cells: SH-EP1 cells (SH-EP1_α4β2), gift from Dr. Jie Wu
T1 sequence (P43681 29-627 limits assumed): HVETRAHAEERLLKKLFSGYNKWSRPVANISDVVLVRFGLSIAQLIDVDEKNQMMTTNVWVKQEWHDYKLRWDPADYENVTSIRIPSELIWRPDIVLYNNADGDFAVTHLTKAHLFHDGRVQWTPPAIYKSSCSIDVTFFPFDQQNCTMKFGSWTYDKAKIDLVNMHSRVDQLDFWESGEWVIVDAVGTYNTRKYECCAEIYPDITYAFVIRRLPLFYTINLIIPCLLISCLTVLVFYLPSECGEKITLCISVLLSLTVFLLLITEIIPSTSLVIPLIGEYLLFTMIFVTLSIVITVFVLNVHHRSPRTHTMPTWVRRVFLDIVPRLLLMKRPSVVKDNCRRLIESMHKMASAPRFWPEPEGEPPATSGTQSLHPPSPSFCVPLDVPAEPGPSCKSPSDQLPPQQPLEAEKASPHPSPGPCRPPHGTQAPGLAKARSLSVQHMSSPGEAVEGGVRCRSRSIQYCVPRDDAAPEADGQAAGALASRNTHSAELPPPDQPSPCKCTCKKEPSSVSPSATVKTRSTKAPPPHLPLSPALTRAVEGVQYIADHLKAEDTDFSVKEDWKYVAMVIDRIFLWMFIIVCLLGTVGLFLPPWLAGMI
T1 sequence (P17787 26-502): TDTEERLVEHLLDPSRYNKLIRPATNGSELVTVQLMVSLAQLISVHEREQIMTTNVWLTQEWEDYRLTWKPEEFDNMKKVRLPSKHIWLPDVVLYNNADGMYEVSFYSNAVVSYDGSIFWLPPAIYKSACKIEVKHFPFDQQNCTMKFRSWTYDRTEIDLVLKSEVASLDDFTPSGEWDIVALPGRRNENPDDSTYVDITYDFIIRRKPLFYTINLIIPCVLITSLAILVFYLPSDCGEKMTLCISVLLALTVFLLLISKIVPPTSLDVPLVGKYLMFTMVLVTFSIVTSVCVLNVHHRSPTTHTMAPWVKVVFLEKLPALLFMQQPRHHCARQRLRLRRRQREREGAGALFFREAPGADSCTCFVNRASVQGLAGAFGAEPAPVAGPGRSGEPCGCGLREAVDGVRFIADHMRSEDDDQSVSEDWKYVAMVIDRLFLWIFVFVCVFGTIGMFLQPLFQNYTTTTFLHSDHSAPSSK
Description: as §1, §2, §3

[2] = target: T1, nicotinic acetylcholine receptor (nAChR), human α4β2 receptor on SH-EP1_α4β2 cells; assay: acetylcholine binding to nAChR on SH-EP1_α4β2 cells measured by SPR; conditions: SH-EP1_α4β2 cells on gold; 50, 100, 200 nM
Description: as §1, §2, §3

In the case of CC(=O)OCC[N+](C)(C)C [acetylcholine], the CAR response (wild-type SH-EP1 cells) was “negligible”, the CAR response (wild-type SH-EP1 cells; listed as Acetylcholine) was “No clear CAR response” and the kd [1] was “(1.5±0.1)×10^-3 s^-1”. For the same compound, the SPR response [2] was “no measurable response”.

Source: publication PMC8185113, “Critical angle reflection imaging for quantification of molecular interactions on glass surface” (Nature Communications, 2021)
